Legend:
barnyardgrass [1] = assay: Test Example 2: soil surface treatment, upland pot test; type: in vivo, Echinochloa crus-galli L.; details: active ingredient 500 g/ha
Excerpt: (§1) Upland field soil was put into a 1/170,000 ha pot, and seed of various plants (barnyardgrass, crabgrass, green foxtail, redroot pigweed, prickly sida, velvetleaf, rice, wheat, corn, soybean) were sown. On the 1st day after the sowing, a wettable powder or emulsifiable concentrate having the compound of the present invention formulated in accordance with a usual formulation method, was weighed so that the active ingredient would be a predetermined amount, and diluted with water in an amount of 1,500 L/ha. The herbicide thus adjusted was applied by a small size sprayer for soil surface treatment. On the 20th to 28th days after the application of the herbicide, the growth of the respective plants was visually observed, and the herbicidal effects were evaluated by the growth controlling degrees (%) ranging from 0 (equivalent to the non-treated plot) to 100 (complete kill), whereby the results shown in Table 4, were obtained.

crabgrass = assay: as above; type: in vivo, Digitaria sanguinalis L.; details: active ingredient 500 g/ha
Excerpt: as §1

green foxtail = assay: as above; type: in vivo, Setaria viridis L.; details: active ingredient 500 g/ha
Excerpt: as §1

redroot pigweed = assay: as above; type: in vivo, Amaranthus retroflexus L.; details: active ingredient 500 g/ha
Excerpt: as §1

prickly sida = assay: as above; type: in vivo, Sida spinosa L.; details: active ingredient 500 g/ha
Excerpt: as §1

velvetleaf = assay: as above; type: in vivo, Abutilon theophrasti MEDIC.; details: active ingredient 500 g/ha
Excerpt: as §1

rice = assay: as above; type: in vivo, Oryza sativa L.; details: active ingredient 500 g/ha
Excerpt: as §1

corn = assay: as above; type: in vivo, Zea mays L.; details: active ingredient 500 g/ha
Excerpt: as §1

soybean = assay: as above; type: in vivo, Glycine max Merr.; details: active ingredient 500 g/ha
Excerpt: as §1

barnyardgrass [2] = assay: Test Example 3: paddy pot test, application under submerged conditions; type: in vivo, Echinochloa crus-galli L.; details: submerged application at 0.5 leaf stage, visually observed 14 days after application, 0 = non-treated, 100 = complete kill
Procedure, shortened: (§2)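 Seeds were sown in flooded paddy soil (0.5–1 cm water), wapato tubers were planted 1–2 days later, and water was then held at 3–4 cm. Diluted wettable powder or emulsifiable concentrate was pipetted into the water at the 0.5 leaf or primary leaf stage. Growth control was visually scored at 14 days (0–100%).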

japanese bulrush = assay: as above; type: in vivo, Scirpus juncoides; details: submerged application at 0.5 leaf stage, visually observed 14 days after application, 0 = non-treated, 100 = complete kill
Procedure, shortened: as §2

japanese ribbon wapato = assay: as above; type: in vivo, Sagittaria pygniaea; details: submerged application at primary leaf stage, visually observed 14 days after application, 0 = non-treated, 100 = complete kill
Procedure, shortened: as §2

rice (var. Nihonbare) = assay: Test Example 3: paddy pot test, transplanted rice; type: in vivo, Oryza sativa L.; details: applied 4th day after transplantation, visually observed 21st day after application, 0 = non-treated, 100 = complete kill
Procedure, shortened: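 Rice (2-leaf stage) was transplanted 3 cm deep into puddled, leveled paddy soil under 3–4 cm flooding. On day 4 after transplanting, diluted wettable powder or emulsifiable concentrate was pipetted onto the water at a predetermined active-ingredient dose. Growth control (0 = untreated, 100 = complete kill) was scored visually 21 days later.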

[3] = observed day 21, 0 = non-treated, 100 = complete kill

Row | SMILES | Growth controlling degree (%) Barnyardgrass (barnyardgrass [1]; observed 20th to 28th day) | Growth controlling degree (%) Crabgrass (crabgrass; observed 20th to 28th day) | Growth controlling degree (%) Green foxtail (green foxtail; observed 20th to 28th day) | Growth controlling degree (%) Redroot pigweed (redroot pigweed; observed 20th to 28th day) | Growth controlling degree (%) Prickly sida (prickly sida; observed 20th to 28th day) | Growth controlling degree (%) Velvetleaf (velvetleaf; observed 20th to 28th day) | Growth controlling degree (%) Rice (rice; observed 20th to 28th day) | Growth controlling degree (%) Corn (corn; observed 20th to 28th day) | Growth controlling degree (%) Soyabean (soybean; observed 20th to 28th day) | Growth controlling degree (%) Barnyardgrass (barnyardgrass [2]; active ingredient 250 g/ha) | Growth controlling degree (%) Japanese bulrush (japanese bulrush; active ingredient 250 g/ha) | Growth controlling degree (%) Japanese ribbon wapato (japanese ribbon wapato; active ingredient 250 g/ha) | Growth controlling degree (%) Rice (rice (var. Nihonbare); active ingredient 250 g/ha) | also measured
1 | CC=CC(=O)N(C)C(c1cnccc1C(F)(F)F)C(C)C (stereo not drawn) [I-180] | 100% | 100% | 100% | 80% | 80% | 50% | 50% | 10% | 10% |  |  |  |  | Growth controlling degree (%) Barnyardgrass (barnyardgrass [2]; active ingredient 500 g/ha): 98%; Growth controlling degree (%) Japanese bulrush (japanese bulrush; active ingredient 500 g/ha): 100%; Growth controlling degree (%) Japanese ribbon wapato (japanese ribbon wapato; active ingredient 500 g/ha): 60%; Growth controlling degree (%) Rice (rice (var. Nihonbare); active ingredient 500 g/ha): 30%
2 | CCN(C(=O)COc1ccccc1)C(c1cnccc1C(F)(F)F)C(C)C (stereo not drawn) [I-259] |  |  |  |  |  |  |  |  |  | 98% | 70% | 90% | 40% | Growth controlling degree (%) Barnyardgrass (barnyardgrass [1]; [3]): 70%; Growth controlling degree (%) Crabgrass (crabgrass; [3]): 75%; Growth controlling degree (%) Green foxtail (green foxtail; [3]): 98%; Growth controlling degree (%) Redroot pigweed (redroot pigweed; [3]): 50%; Growth controlling degree (%) Prickly sida (prickly sida; [3]): 40%; Growth controlling degree (%) Velvetleaf (velvetleaf; [3]): 10%; Growth controlling degree (%) Rice (rice; [3]): 10%; Growth controlling degree (%) Corn (corn; [3]): 30%; Growth controlling degree (%) Soyabean (soybean; [3]): 0%
3 | Cc1cc(Cl)ccc1OCC(=O)N(C)C(c1cnccc1C(F)(F)F)C(C)C (stereo not drawn) [I-234] | 95% | 98% | 70% | 70% | 50% | 30% | 10% | 0% | 0% | 100% | 90% | 40% | 0% | 
4 | CC(C)C(c1cnccc1C(F)(F)F)N(C)C(=O)CC1C=CCC1 (stereo not drawn) [I-183] | 100% | 100% | 100% | 95% | 30% | 50% | 60% | 10% | 10% |  |  |  |  | Growth controlling degree (%) Barnyardgrass (barnyardgrass [2]; active ingredient 500 g/ha): 100%; Growth controlling degree (%) Japanese bulrush (japanese bulrush; active ingredient 500 g/ha): 100%; Growth controlling degree (%) Japanese ribbon wapato (japanese ribbon wapato; active ingredient 500 g/ha): 70%; Growth controlling degree (%) Rice (rice (var. Nihonbare); active ingredient 500 g/ha): 10%
5 | CCc1ccc(CC(=O)N(C)C(c2cnccc2C(F)(F)F)C(C)C)cc1 (stereo not drawn) [I-95] | 95% | 98% | 90% | 60% | 80% | 30% | 10% | 10% | 30% | 100% | 98% | 20% | 0% | 
6 | CC(C)C(c1cnccc1C(F)(F)F)N(C)C(=O)Cc1ccsc1 (stereo not drawn) [I-170] | 100% | 98% | 100% | 30% | 95% | 30% | 30% | 50% | 35% | 100% | 100% | 70% | 0% | 
7 | Cc1cccc(CC(=O)N(C)C(c2cnccc2C(F)(F)F)C(C)C)c1 (stereo not drawn) [I-87] | 100% | 98% | 95% | 85% | 100% | 70% | 0% | 40% | 0% | 100% | 90% | 70% | 0% | 
8 | CC(C)C(c1cnccc1C(F)(F)F)N(C)C(=O)N(C)c1ccccc1 (stereo not drawn) [I-232] | 100% | 100% | 100% | 80% | 95% | 70% | 30% | 30% | 0% |  |  |  |  | Growth controlling degree (%) Barnyardgrass (barnyardgrass [2]; active ingredient 500 g/ha): 100%; Growth controlling degree (%) Japanese bulrush (japanese bulrush; active ingredient 500 g/ha): 90%; Growth controlling degree (%) Japanese ribbon wapato (japanese ribbon wapato; active ingredient 500 g/ha): 70%; Growth controlling degree (%) Rice (rice (var. Nihonbare); active ingredient 500 g/ha): 60%
9 | CC(C)C(c1cnccc1C(F)(F)F)N(C)C(=O)COc1cc(F)ccc1F (stereo not drawn) [Compound I-245] |  |  |  |  |  |  |  |  |  | 100% | 95% | 70% | 10% | Growth controlling degree (%) Barnyardgrass (barnyardgrass [1]; [3]): 90%; Growth controlling degree (%) Crabgrass (crabgrass; [3]): 80%; Growth controlling degree (%) Green foxtail (green foxtail; [3]): 80%; Growth controlling degree (%) Redroot pigweed (redroot pigweed; [3]): 50%; Growth controlling degree (%) Prickly sida (prickly sida; [3]): 70%; Growth controlling degree (%) Velvetleaf (velvetleaf; [3]): 0%; Growth controlling degree (%) Rice (rice; [3]): 35%; Growth controlling degree (%) Corn (corn; [3]): 50%; Growth controlling degree (%) Soyabean (soybean; [3]): 40%
10 | CC(C)C(c1cnccc1C(F)(F)F)N(C)C(=O)CCc1ccccc1 (stereo not drawn) [I-169] | 100% | 98% | 100% | 70% | 90% | 20% | 40% | 40% | 30% | 100% | 50% | 0% | 10% | 
11 | COc1ccc(OCC(=O)N(C)C(c2cnccc2C(F)(F)F)C(C)C)cc1 (stereo not drawn) [I-244] | 50% | 80% | 80% | 60% | 60% | 0% | 20% | 30% | 0% | 100% | 95% | 50% | 0% | 
12 | CCN(C(=O)Cc1ccc(Cl)cc1)C(c1cnccc1C(F)(F)F)C(C)C (stereo not drawn) [Compound I-100] | 98% | 98% | 100% | 10% | 70% | 10% | 30% | 30% | 0% | 100% | 95% | 30% | 10% | 

— patent publication US20050239656A1, “Pyridine compounds or salts thereof and herbicides containing the same” (priority 2002, published 2005)
